Laboratory results published in patent US8940739B2, “Compound of a reverse-turn mimetic and a production method and use therefor” (JW Pharmaceutical Corporation, priority 2010, dated 2015).

tested on: MV-4-11 (human, Acute Myeloid Leukemia cell line) cells; test: Cell growth inhibition assay, GI50 of MV-4-11; format: cell-based; details: Homo sapiens, MV4-11, 72 h, MV-4-11 cells
Procedure: The anti-proliferative activity (cell growth inhibition assay) of the compounds according to the present invention against AML (Acute Myeloid Leukemia) cancer cells was measured. […] The lower the GI50 value, the higher the anti-proliferative activity.
A cell growth Inhibition assay was performed to investigate the rate of inhibition of cell proliferation by the compounds of the present invention. MV-4-11 (human, Acute Myeloid Leukemia cell line) cells were cultured in Iscove's modified Dulbecco's medium (IMDM) including 10% fetal bovine serum (FBS), 1× penicillin/streptomycin (10,000 units/ml Penicillin, […] Streptomycin in 0.85% NaCl). MV-4-11 cells were harvested with the IMDM and 5×10^4 cells/well were transferred to each well of 96-well culture plates (Nunc, #167008).
The compounds of Examples 1 to 5 were exposed to serial dilution and duplicated for each concentration. For the serial dilution, the compounds of the present invention were repeatedly diluted with the same volume of media onto 96-well assay block (costar, #3956). After the dilution, each compound was added to each well.
Also, the background absorbance was measured during the treatment with the test compounds by replacing the test compound with IMDM in the negative control plate. The plates were incubated for three days (72 hours) at 37 in the humidified incubator containing 5% CO2. On the last day, 20 µl of a CellTiter 96 Aqueous One Solution (Promega #G3581) was added to the culture in each well and the plates were incubated for a few hours at 37 in the humidified incubator containing 5% CO2. After the incubation, the absorbance of each cell was measured at 490 nm using an EnVision (Perkinelmer, USA).
The GI50 values were calculated using a Prism 3.0 program.

Question: Which GI50 does the source give for `C=CCN1CC(=O)N2[C@@H](Cc3ccc(O)cc3)C(=O)N(Cc3cccc4c(-c5ccc(NC(=O)NC6CCN(C(C)=O)CC6)cc5)cn(C)c34)C[C@@H]2N1C(=O)NCc1ccccc1` [Compound D-84] here?
Answer: 1.7 nM

Question: Which GI50 does the source give for `C=CCN1CC(=O)N2[C@@H](Cc3ccc(O)cc3)C(=O)N(Cc3cccc4c(C(=O)N(C)CCCN5CCN(C)CC5)cn(C)c34)C[C@@H]2N1C(=O)NCc1ccccc1` [Compound F-31] here?
Answer: 1.9 nM

Question: How did the GI50 turn out when `C=CCN1CC(=O)N2[C@@H](Cc3ccc(O)cc3)C(=O)N(Cc3cccc4c(-c5ccc(C(=O)N6CCN(C)CC6)cc5)cn(C)c34)C[C@@H]2N1C(=O)NCc1ccccc1` [Compound D-3] was run?
Answer: 0.1 nM

Question: `C=CCN1CC(=O)N2[C@@H](Cc3ccc(O)cc3)C(=O)N(Cc3cccc4c(-c5ccc(C(=O)N6CCCCC6)cc5)cn(C)c34)C[C@@H]2N1C(=O)NCc1ccccc1` [Compound D-4] was tested. Which GI50 did it give?
Answer: 1.4 nM

Question: Which GI50 does the source give for `C=CCN1CC(=O)N2[C@@H](Cc3ccc(O)cc3)C(=O)N(Cc3cccc4c(-c5ccc(C(=O)NOC(C)(C)C)cc5)cn(C)c34)C[C@@H]2N1C(=O)NCc1ccccc1` [Compound D-46] here?
Answer: 3.4 nM

Question: `C=CCN1CC(=O)N2[C@@H](Cc3ccc(O)cc3)C(=O)N(Cc3cccc4c(-c5ccc(C(=O)N6CCN(C)CC6)o5)cn(C)c34)C[C@@H]2N1C(=O)NCc1ccccc1` [Compound D-105] was tested. Which GI50 did it give?
Answer: 3.7 nM

Question: For `C=CCN1CC(=O)N2[C@@H](Cc3ccc(O)cc3)C(=O)N(Cc3cccc4c(C(=O)N5CCN(Cc6cccc(C)n6)CC5)cn(C)c34)C[C@@H]2N1C(=O)NCc1ccccc1` [Compound E-31], which GI50 is on record?
Answer: 6 nM

Question: `C=CCN1CC(=O)N2[C@@H](Cc3ccc(O)cc3)C(=O)N(Cc3cccc4c(-c5ccc(C(=O)Nc6ccc(N7CCNCC7)cc6)cc5)cn(C)c34)C[C@@H]2N1C(=O)NCc1ccccc1` [Compound D-13] was tested. Which GI50 did it give?
Answer: 1.2 nM

Question: For `C=CCN1CC(=O)N2[C@@H](Cc3ccc(O)cc3)C(=O)N(Cc3cccc4c(C(=O)NCc5ccccn5)cn(C)c34)C[C@@H]2N1C(=O)NCc1ccccc1` [Compound F-42], which GI50 is on record?
Answer: 9.1 nM

Question: For `C=CCN1CC(=O)N2C(CN(Cc3cccc4c(C(=O)Nc5ccc(N6CCC(N7CCOCC7)CC6)nc5)cn(C)c34)C(=O)[C@@H]2Cc2ccc(O)cc2)N1C(=O)NCc1ccccc1` (stereo partly drawn) [Compound G-56], which GI50 is on record?
Answer: 1.3 nM

Question: `C=CCN1CC(=O)N2[C@@H](Cc3ccc(O)cc3)C(=O)N(Cc3cccc4c(-c5ccc(NC(=O)NCC)nc5)cn(C)c34)C[C@@H]2N1C(=O)NCc1ccccc1` [Compound D-94] was tested. Which GI50 did it give?
Answer: 1.5 nM

Question: For `C=CCN1CC(=O)N2[C@@H](Cc3ccc(O)cc3)C(=O)N(Cc3cccc4c(C(=O)N5CCN(c6ccccc6)CC5)cn(C)c34)C[C@@H]2N1C(=O)NCc1ccccc1` [Compound E-37], which GI50 is on record?
Answer: 16.4 nM

Question: For `C=CCN1CC(=O)N2[C@@H](Cc3ccc(O)cc3)C(=O)N(Cc3cccc4c(-c5ccc(NC(=O)NC(C)C)nc5)cn(C)c34)C[C@@H]2N1C(=O)NCc1ccccc1` [Compound D-99], which GI50 is on record?
Answer: 2.7 nM

Question: Which GI50 does the source give for `C=CCN1CC(=O)N2C(CN(Cc3cccc4c(C(=O)Nc5ccc(N)cc5)cn(C)c34)C(=O)[C@@H]2Cc2ccc(O)cc2)N1C(=O)NCc1ccccc1` (stereo partly drawn) [Compound G-8] here?
Answer: 7.4 nM

Question: `C=CCN1CC(=O)N2[C@@H](Cc3ccc(O)cc3)C(=O)N(Cc3cccc4c(C(=O)N5CCN(Cc6ccncc6)CC5)cn(C)c34)C[C@@H]2N1C(=O)NCc1ccccc1` [Compound E-30] was tested. Which GI50 did it give?
Answer: 14.4 nM

Question: Which GI50 does the source give for `C=CCN1CC(=O)N2[C@@H](Cc3ccc(O)cc3)C(=O)N(Cc3cccc4c(-c5ccc(C(N)=O)cc5)cn(C)c34)C[C@@H]2N1C(=O)NCc1ccccc1` [Compound D-7] here?
Answer: 1.2 nM

Question: For `C=CCN1CC(=O)N2[C@@H](Cc3ccc(O)cc3)C(=O)N(Cc3cccc4c(C(=O)NCc5cccc(N6CCCC6)n5)cn(C)c34)C[C@@H]2N1C(=O)NCc1ccccc1` [Compound F-49], which GI50 is on record?
Answer: 11.4 nM

Question: With `C=CCN1CC(=O)N2[C@@H](Cc3ccc(O)cc3)C(=O)N(Cc3cccc4c(C(=O)N(C)Cc5ccc(N(C)C)cc5)cn(C)c34)C[C@@H]2N1C(=O)NCc1ccccc1` [Compound F-46] as the molecule, how does the GI50 read?
Answer: 1.3 nM

Question: How did the GI50 turn out when `C=CCN1CC(=O)N2[C@@H](Cc3ccc(O)cc3)C(=O)N(Cc3cccc4c(-c5ccc(NC(=O)Nc6ccc(N7CCN(C)CC7)nc6)cc5)cn(C)c34)C[C@@H]2N1C(=O)NCc1ccccc1` [Compound D-78] was run?
Answer: 1.5 nM

Question: For `C=CCN1CC(=O)N2C(CN(Cc3cccc4c(C(=O)Nc5ccc(SC)cc5)cn(C)c34)C(=O)[C@@H]2Cc2ccc(O)cc2)N1C(=O)NCc1ccccc1` (stereo partly drawn) [Compound G-7], which GI50 is on record?
Answer: 10.5 nM

Question: `C=CCN1CC(=O)N2[C@@H](Cc3ccc(O)cc3)C(=O)N(Cc3cccc4c(-c5ccc(NC(=O)N6CCN(C)CC6)nc5)cn(C)c34)C[C@@H]2N1C(=O)NCc1ccccc1` [Compound D-87] was tested. Which GI50 did it give?
Answer: 1.3 nM

Question: `C=CCN1CC(=O)N2[C@@H](Cc3ccc(O)cc3)C(=O)N(Cc3cccc4c(-c5ccc(C(=O)NC6CCN(C(C)C)CC6)o5)cn(C)c34)C[C@@H]2N1C(=O)NCc1ccccc1` [Compound D-104] was tested. Which GI50 did it give?
Answer: 6.3 nM

Question: `C=CCN1CC(=O)N2[C@@H](Cc3ccc(O)cc3)C(=O)N(Cc3cccc4c(C(=O)N5CCN(Cc6ccc(C)cc6)CC5)cn(C)c34)C[C@@H]2N1C(=O)NCc1ccccc1` [Compound E-27] was tested. Which GI50 did it give?
Answer: 13.5 nM

Question: How did the GI50 turn out when `C=CCN1CC(=O)N2[C@@H](Cc3ccc(O)cc3)C(=O)N(Cc3cccc4c(-c5ccc(NC(=O)N6CCN(C)CC6)cc5)cn(C)c34)C[C@@H]2N1C(=O)NCc1ccccc1` [Compound D-67] was run?
Answer: 1.3 nM

Question: Which GI50 does the source give for `C=CCN1CC(=O)N2[C@@H](Cc3ccc(O)cc3)C(=O)N(Cc3cccc4c(-c5ccc(NC(=O)N6CC(N7CCC(OC)CC7)C6)cc5)cn(C)c34)C[C@@H]2N1C(=O)NCc1ccccc1` [Compound D-66-1] here?
Answer: 1.4 nM

Question: With `C=CCN1CC(=O)N2[C@@H](Cc3ccc(O)cc3)C(=O)N(Cc3cccc4c(-c5ccc(C(=O)NCc6ccccc6)cc5)cn(C)c34)C[C@@H]2N1C(=O)NCc1ccccc1` [Compound D-27] as the molecule, how does the GI50 read?
Answer: 4.3 nM

Question: For `C=CCN1CC(=O)N2[C@@H](Cc3ccc(O)cc3)C(=O)N(Cc3cccc4c(C(=O)N(C)Cc5ccncc5)cn(C)c34)C[C@@H]2N1C(=O)NCc1ccccc1` [Compound F-40], which GI50 is on record?
Answer: 17.2 nM

Question: Which GI50 does the source give for `C=CCN1CC(=O)N2[C@@H](Cc3ccc(O)cc3)C(=O)N(Cc3cccc4c(C(=O)N(C)Cc5cccnc5)cn(C)c34)C[C@@H]2N1C(=O)NCc1ccccc1` [Compound F-41] here?
Answer: 11.6 nM

Question: For `C=CCN1CC(=O)N2[C@@H](Cc3ccc(O)cc3)C(=O)N(Cc3cccc4c(C(=O)N(C)CCCNC(C)C)cn(C)c34)C[C@@H]2N1C(=O)NCc1ccccc1` [Compound F-19], which GI50 is on record?
Answer: 1.5 nM

Question: For `C=CCN1CC(=O)N2[C@@H](Cc3ccc(O)cc3)C(=O)N(Cc3cccc4c(-c5ccc(NC(=O)N6CC(N7CCOCC7)C6)cc5)cn(C)c34)C[C@@H]2N1C(=O)NCc1ccccc1` [Compound D-66], which GI50 is on record?
Answer: 1.3 nM

Question: Which GI50 does the source give for `C=CCN1CC(=O)N2C(CN(Cc3cccc4c(C(=O)Nc5ccc(NCCCO)nc5)cn(C)c34)C(=O)[C@@H]2Cc2ccc(O)cc2)N1C(=O)NCc1ccccc1` (stereo partly drawn) [Compound G-19] here?
Answer: 9.3 nM

Question: With `C=CCN1CC(=O)N2[C@@H](Cc3ccc(O)cc3)C(=O)N(Cc3cccc4c(-c5ccc(C(=O)NC6CCC(N)CC6)cc5)cn(C)c34)C[C@@H]2N1C(=O)NCc1ccccc1` (stereo partly drawn) [Compound D-30] as the molecule, how does the GI50 read?
Answer: 1.5 nM

Question: With `C=CCN1CC(=O)N2[C@@H](Cc3ccc(O)cc3)C(=O)N(Cc3cccc4c(C(=O)N(C)Cc5ccccn5)cn(C)c34)C[C@@H]2N1C(=O)NCc1ccccc1` [Compound F-43] as the molecule, how does the GI50 read?
Answer: 17.8 nM

Question: With `C=CCN1CC(=O)N2[C@@H](Cc3ccc(O)cc3)C(=O)N(Cc3cccc4c(C(=O)N5CCN(C6CCCC6)CC5)cn(C)c34)C[C@@H]2N1C(=O)NCc1ccccc1` [Compound E-18] as the molecule, how does the GI50 read?
Answer: 20.9 nM

Question: With `C=CCN1CC(=O)N2[C@@H](Cc3ccc(O)cc3)C(=O)N(Cc3cccc4c(C(=O)N(C)Cc5cccc(C)n5)cn(C)c34)C[C@@H]2N1C(=O)NCc1ccccc1` [Compound F-45] as the molecule, how does the GI50 read?
Answer: 1.7 nM

Question: With `C=CCN1CC(=O)N2[C@@H](Cc3ccc(O)cc3)C(=O)N(Cc3cccc4c(-c5ccc(NC(=O)C6CCCN(C)C6)cc5)cn(C)c34)C[C@@H]2N1C(=O)NCc1ccccc1` (stereo partly drawn) [Compound D-63] as the molecule, how does the GI50 read?
Answer: 1.3 nM

Question: For `C=CCN1CC(=O)N2C(Cc3ccc(O)cc3)C(=O)N(Cc3cccc4c(C(=O)Nc5ccc(NCC)nc5)cn(C)c34)CC2N1C(=O)NCc1ccccc1` (stereo not drawn) [Compound G-16], which GI50 is on record?
Answer: 1.7 nM

Question: Which GI50 does the source give for `C=CCN1CC(=O)N2[C@@H](Cc3ccc(O)cc3)C(=O)N(Cc3cccc4c(-c5cccc(C(=O)N6CCOCC6)c5)cn(C)c34)C[C@@H]2N1C(=O)NCc1ccccc1` [Compound D-1] here?
Answer: 1.8 nM

Question: `C=CCN1CC(=O)N2[C@@H](Cc3ccc(O)cc3)C(=O)N(Cc3cccc4c(-c5ccc(NC(=O)N6CCC(N(C)C)CC6)cc5)cn(C)c34)C[C@@H]2N1C(=O)NCc1ccccc1` [Compound D-65] was tested. Which GI50 did it give?
Answer: 1.3 nM

Question: Which GI50 does the source give for `C=CCN1CC(=O)N2[C@@H](Cc3ccc(O)cc3)C(=O)N(Cc3cccc4c(-c5ccc(NC(=O)Nc6ccncn6)cc5)cn(C)c34)C[C@@H]2N1C(=O)NCc1ccccc1` [Compound D-81] here?
Answer: 9.9 nM

same assay, conditions: MV-4-11 cells, 72 hours; read-out: MV4-11 GI50

Question: `C=CCN1CC(=O)N2[C@@H](Cc3ccc(O)cc3)C(=O)N(Cc3cccc4c(C(=O)N5CCN(Cc6ccccn6)CC5)cn(C)c34)C[C@@H]2N1C(=O)NCc1ccccc1` [Compound E-29] was tested. Which GI50 did it give?
Answer: 18.4 nM

Question: `C=CCN1CC(=O)N2[C@@H](Cc3ccc(O)cc3)C(=O)N(Cc3cccc4c(C(=O)N5CCN(Cc6ccccn6)CC5)cn(C)c34)C[C@@H]2N1C(=O)NCc1ccccc1` [Compound E-28] was tested. Which GI50 did it give?
Answer: 5.6 nM
